From publication PMC10978029 (Virulence, 2024)

Legend:
STM0435 [1] = biological target: STM0435 (Salmonella enterica, UniProt Q8ZRC9, D138H/R137H/R33H); assay: biochemical
STM0435 [2] = biological target: STM0435 (Salmonella enterica, UniProt Q8ZRC9, D138H/R137H); assay: biochemical
STM0435 [3] = biological target: STM0435 (Salmonella enterica, UniProt Q8ZRC9, R33H); assay: biochemical
STM0435 [4] = biological target: T1, STM0435 (Salmonella enterica, UniProt Q8ZRC9); assay: SPR; type: binding
T1 sequence (Q8ZRC9 1-163): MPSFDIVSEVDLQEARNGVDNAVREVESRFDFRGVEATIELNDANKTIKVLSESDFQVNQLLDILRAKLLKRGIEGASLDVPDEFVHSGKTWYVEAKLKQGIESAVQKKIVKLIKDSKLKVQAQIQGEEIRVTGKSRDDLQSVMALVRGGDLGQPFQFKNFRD

Nc1nc2c(ncn2[C@@H]2O[C@@H]3CO[P@](=O)(O)O[C@H]4[C@@H](O)[C@H](n5cnc6c(=O)[nH]c(N)nc65)O[C@@H]4CO[P@](=O)(O)O[C@H]3[C@H]2O)c(=O)[nH]1 [c-di-GMP]
Kd (STM0435 [1]): 33.2 µM
Kd (STM0435 [2]): 25.3 µM
Kd (STM0435 [3]): 15.2 µM
Kd (STM0435 [4]): 8.38 µM
